Where a name gives a salt, the structure may show the parent alone.
system: Jurkat T cells; format: cell-based, human; conditions: IL-2 production level in treated group compared to control group; 48 hours treatment, then anti-CD3/anti-CD28 12 hours
Source text: Two preliminary screens were designed and performed.
To construct “blood chemical compound library for cell-based screening purposes, components such as antibodies that are difficult to distinguish due to a wide variety, and some supplements that only function at a whole organism level including fish oils and herbs were excluded. Physiological ranges of serum levels of individual blood chemicals are available in the human metabolome database (https://hmdb.ca/) and applied in the experimental design. For first screen 1a, Jurkat T cells were treated with blood chemical library for 48 hours and then activated with 2.5 μg/mL anti-CD3 and 0.5 μg/mL anti-CD28 antibodies for another 12 hours, followed by measurement of IL-2 level in medium supernatant using ELISA kit (Biolegend). For first screen 1b, 1×10^5 PD-1^+ Jurkat T cells were co-cultured with 2×10^4 H596 (PD-L1^+) cells in a well of 96-well plate for 60 hours, and then activated with 2.5 μg/mL anti-CD3 and 0.5 μg/mL anti-CD28 antibodies for another 12 hours, followed by measurement of IL-2 level in medium supernatant using ELISA kit. Please also refer to Resources Table and Table 1-2 for more details.

Compared with C=C1CC[C@H](O)C/C1=C/C=C1\CCC[C@]2(C)[C@@H]([C@H](C)CCCC(C)C)CC[C@@H]12 [CHOLECALCIFEROL CRYSTALLINE, CHOLECALCIFEROL], N[C@@H](Cc1cc(I)c(Oc2ccc(O)c(I)c2)c(I)c1)C(=O)[O-].[Na+] [′,5-TRIIODO-L-THYRONINE SODIUM SALT] is lower in “Relative changed percentage (%)” value: 25.45% for the first, −13.42% for the second.

Compared with [Na+].[Na+].[O]=[Mo](=[O])([O-])[O-] [Sodium Molybdate], Zinc Picolinate is lower in “Relative changed percentage (%)” value: 22.1968% for the first, 5.492% for the second.

Compared with N[C@@H](CC(=O)[O-])C(=O)[O-].[K+].[K+] [L-Aspartic acid potassium salt], NC(=O)c1cccnc1 [Niacinamide] is higher in “Relative changed percentage (%)” value: 4.421% for the first, 95.23% for the second.

Going from C[C@]12CC[C@@H]3c4ccc(O)cc4CC[C@H]3[C@@H]1C[C@@H](O)[C@@H]2O [ESTRIOL] to CC/C=C\C/C=C\C/C=C\C/C=C\CCCCC(=O)O [Stearidonic Acid], the “Relative changed percentage (%)” value rises from 2.789% to 109.3%.

First: NC(=O)CC[C@H](N)C(=O)O [L-Glutamine]
Second: COC1=C(OC)C(=O)C(C/C=C(\C)CC/C=C(\C)CC/C=C(\C)CC/C=C(\C)CC/C=C(\C)CC/C=C(\C)CC/C=C(\C)CC/C=C(\C)CC/C=C(\C)CCC=C(C)C)=C(C)C1=O [CoQ-10]
The “Relative changed percentage (%)” value of the first is lower: 25.52% for the first, 26.54% for the second.

Going from O=C(O)c1cccnc1 [Nicotinic Acid] to C[N+](C)(C)[C@@H](Cc1c[nH]c(=S)[nH]1)C(=O)[O-] [L-(+)-ERGOTHIONEINE INNER SALT], the “Relative changed percentage (%)” value falls from 205.6% to −10.39%.

Compared with N[C@@H](CC(=O)[O-])C(=O)[O-].[Mg+2] [Magnesium Aspartate], CC(O)CC(=O)O (stereo not shown) [3-HYDROXYBUTYRIC ACID] is higher in “Relative changed percentage (%)” value: −4.156% for the first, 5.082% for the second.

First: CC(=O)CC(=O)[O-].[Li+] [LITHIUM ACETOACETATE/Acetoacetic acid, LITHIUM ACETOACETATE]
Second: CCCCCCCC/C=C\CCCCCCCCCCCCCC(=O)O [Nervonic acid]
The “Relative changed percentage (%)” value of the first is lower: −21.48% for the first, 37.68% for the second.

First: OC[C@H]1O[C@@H](Oc2c[nH]c3ccccc23)[C@H](O)[C@@H](O)[C@@H]1O [INDOXYL beta-D-GLUCOSIDE]
Second: L-a-Phosphatidylcholine
The “Relative changed percentage (%)” value of the first is higher: 30.46% for the first, −37.16% for the second.

First: D-(+)-MALTOSE MONOHYDRATE
Second: O=c1cc[nH]c(=O)[nH]1 [URACIL]
The “Relative changed percentage (%)” value of the first is lower: −4.914% for the first, 2.457% for the second.

Compared with Cn1cnc2c1c(=O)[nH]c(=O)n2C [THEOBROMINE], C[C@@H]1O[C@@H](OC[C@H]2O[C@@H](Oc3c(-c4ccc(O)c(O)c4)oc4cc(O)cc(O)c4c3=O)[C@H](O)[C@@H](O)[C@@H]2O)[C@H](O)[C@H](O)[C@H]1O [Rutoside trihydrate] is lower in “Relative changed percentage (%)” value: 25.42% for the first, 14.9881% for the second.

Going from O.OC[C@H]1O[C@@H](O[C@H]2[C@H](O)[C@@H](O)C(O)O[C@@H]2CO)[C@H](O)[C@@H](O)[C@H]1O (stereo partly drawn) [D-LACTOSE MONOHYDRATE] to CC(=O)[C@@]1(O)CC[C@H]2[C@@H]3CCC4=CC(=O)CC[C@]4(C)[C@H]3CC[C@@]21C [17A-HYDROXYPROGESTERONE], the “Relative changed percentage (%)” value rises from 22.47% to 41.36%.

Compared with c1ncc2[nH]cnc2n1 [PURINE], CCCCC/C=C\C/C=C\CCCCCCCC(=O)O [linoleic acid] is lower in “Relative changed percentage (%)” value: 63.4263% for the first, −9.42% for the second.

Going from Magnesium citrate to Chromium picolinate, the “Relative changed percentage (%)” value falls from 3.782% to −4.067%.

First: CC[C@H](C)[C@@H]1NC(=O)[C@H](Cc2ccc(O)cc2)NC(=O)[C@@H](N)CSSC[C@@H](C(=O)N2CCC[C@H]2C(=O)N[C@@H](CC(C)C)C(=O)NCC(N)=O)NC(=O)[C@H](CC(N)=O)NC(=O)[C@H](CCC(N)=O)NC1=O [OXYTOCIN]
Second: NC(=O)NCCC[C@H](N)C(=O)O [L-CITRULLINE]
The “Relative changed percentage (%)” value of the first is lower: −6.991% for the first, −3.384% for the second.

First: L-A-PHOSPHATIDYLCHOLINE TYPE XVI-E
Second: [Cl-].[K+] [POTASSIUM CHLORIDE/potassium, POTASSIUM CHLORIDE]
The “Relative changed percentage (%)” value of the first is lower: 38.1% for the first, 38.97% for the second.

Compared with CCCCCCCC/C=C\CCCCCCCCCCCC(=O)O [Erucic acid], CC(=O)N[C@H]1C(O)O[C@H](CO)[C@@H](O)[C@@H]1O (stereo partly drawn) [N-acetyl D-glucosamine] is lower in “Relative changed percentage (%)” value: 10.71% for the first, −4.044% for the second.

Compared with Cl.N=C(N)N [GUANIDINE IIYDROCIILORIDE,, GUANIDINE IIYDROCIILORIDE], CSCC[C@H](N)C(=O)O [L-Methionine] is lower in “Relative changed percentage (%)” value: 41.83% for the first, −11.84% for the second.

First: NCCc1c[nH]cn1 [HISTAMINE FREE BASE CRYSTALLINE, HISTAMINE FREE BASE]
Second: Cl.NCCc1c[nH]c2ccc(O)cc12 [-HYDROXYTRYPTAMINE HYDROCHLORIDE]
The “Relative changed percentage (%)” value of the first is higher: −3.594% for the first, −22.39% for the second.

First: C[C@]12CCC(=O)C=C1CC[C@@H]1[C@@H]2CC[C@]2(C)C(=O)CC[C@@H]12 [ANDROSTENEDIONE]
Second: CC[C@H](C)[C@H](NC(=O)[C@H](Cc1ccc(O)cc1)NC(=O)[C@@H](NC(=O)[C@H](CCCNC(=N)N)NC(=O)[C@@H](N)CC(=O)O)C(C)C)C(=O)N[C@@H](Cc1cnc[nH]1)C(=O)N1CCC[C@H]1C(=O)N[C@@H](Cc1ccccc1)C(=O)O [ANGIOTENSIN II HUMAN]
The “Relative changed percentage (%)” value of the first is higher: 25.93% for the first, 17.25% for the second.

Compared with O=C(O)CC(O)C(=O)O (racemic) [DL-MALIC ACID], N=C(N)NCCC[C@H](N)C(=O)O [L-Arginine] is lower in “Relative changed percentage (%)” value: 40.01% for the first, 10.75% for the second.

Going from CC1=C(/C=C/C(C)=C/C=C/C(C)=C/C=C/C=C(C)/C=C/C=C(C)/C=C/C2=C(C)C(=O)[C@@H](O)CC2(C)C)C(C)(C)C[C@H](O)C1=O [Astaxanthin] to COc1c(O)c(C)c(C/C=C(\C)CC/C=C(\C)CC/C=C(\C)CC/C=C(\C)CC/C=C(\C)CC/C=C(\C)CC/C=C(\C)CC/C=C(\C)CC/C=C(\C)CCC=C(C)C)c(O)c1OC [Ubiquinol], the “Relative changed percentage (%)” value falls from 12.26% to 2.165%.

Going from O=C([O-])[C@H](O)[C@@H](O)[C@H](O)[C@H](O)CO.[K+] [Potassium Gluconate] to O=S(=O)([O-])[O-].[Mn+2] [Manganese sulfate], the “Relative changed percentage (%)” value falls from 97.7133% to 29.55%.

Compared with C[C@@H](O)[C@H](N)C(=O)O [L-Threonine], CN(CC(=O)O)C(=N)N [Creatine] is lower in “Relative changed percentage (%)” value: −6.543% for the first, −40.99% for the second.

First: Cc1ncc(CO)c(C=O)c1O.Cl [Pyridoxal Hydrochloride]
Second: Sphingomyelin
The “Relative changed percentage (%)” value of the first is lower: 7.787% for the first, 95.24% for the second.

First: Cc1ncc(C[n+]2csc(CCOP(=O)(O)OP(=O)(O)O)c2C)c(N)n1 [TIIIAMINE PYROPIIOSPIIATE]
Second: COc1cc(CNC(=O)CCCC/C=C/C(C)C)ccc1O [Capsaicin]
The “Relative changed percentage (%)” value of the first is higher: 9.753% for the first, 1.661% for the second.

Going from NC(=O)C[C@H](N)C(=O)O [L-Asparagine] to VASOACTIVE INTESTINAL PEPTIDE, the “Relative changed percentage (%)” value falls from 28.4787% to 1.0212%.

Going from CCCCCC/C=C\CCCCCCCC(=O)O [Palmitoleic acid] to Silicic acid, the “Relative changed percentage (%)” value falls from 54.63% to −1.03%.

First: Tricalcium phosphate hydrate
Second: CC(=O)OCC[N+](C)(C)C.[Cl-] [ACE[…]]
The “Relative changed percentage (%)” value of the first is higher: 51.49% for the first, −8.939% for the second.

Compared with CCCCCCCCCCCCCCCCCC(=O)O [Stearic Acid], C/C=C/C=C/C(=O)[O-].[K+] [Potassium sorbate] is lower in “Relative changed percentage (%)” value: 38.77% for the first, −2.288% for the second.

Going from N[C@H]1C(O)O[C@H](CO)[C@@H](O)[C@@H]1OS(=O)(=O)O (stereo partly drawn) [D-glucosamine 3-sulfate] to [Cl][Hg][Cl] [MERCURY(II) CHLORIDE], the “Relative changed percentage (%)” value falls from 9.801% to −2.995%.

Compared with CHONDROITIN SULFATE, A SODIUM SALT, N[C@@H](CCC(=O)O)C(=O)O [L-Glutamic Acid] is lower in “Relative changed percentage (%)” value: 9.195% for the first, 2.2718% for the second.

First: CC(C)CCC[C@@H](C)[C@H]1CC[C@H]2[C@@H]3CC=C4C[C@@H](O)CC[C@]4(C)[C@H]3CC[C@]12C [CHOLESTEROL]
Second: O[C@H]1[C@H](O)[C@@H](O)[C@H](O)[C@@H](O)[C@H]1O [MYO-INOSITOL]
The “Relative changed percentage (%)” value of the first is lower: −31.89% for the first, 40.7157% for the second.

First: O=C(O)CCCCC1CCSS1 (racemic) [DL-6,8-Thioctic Acid]
Second: Bromelain from pineapple stem
The “Relative changed percentage (%)” value of the first is lower: −4.135% for the first, 16.0114% for the second.

Going from Nc1nc2c(ncn2[C@@H]2O[C@@H]3COP(=O)([O-])O[C@H]3[C@H]2O)c(=O)[nH]1.[Na+] [GUANOSINE 3′:5′-CYCLIC MONOPIIOSPIIATE SODIUM] to O=C(/C=C/c1ccc(O)c(O)c1)OCCc1ccccc1 [Caffeic acid phenethyl ester], the “Relative changed percentage (%)” value rises from 8.266% to 43.85%.

First: Iron Gluconate
Second: THYROCALCITONIN SALMON/calcitonin
The “Relative changed percentage (%)” value of the first is lower: 3.271% for the first, 11.37% for the second.

In the case of N[C@@H](CC(=O)O)C(=O)O [L-Aspartic Acid], the “Relative changed percentage (%)” value is reported as −9.615%.

Reference: US20250221953A1 (The University of Chicago, priority 2022, published 2025)
